The values that follow are results of earlier work, collected in patent publication US20190151293A1, “PHARMACEUTICAL COMPOSITION COMPRISING A NON-PURINE SELECTIVE INHIBITOR OF XANTHINE OXIDASE AND METHOD FOR THE PREPARATION THEREOF” (PHARMATHEN S.A., priority 2016, published 2019).

Like-named read-outs stand apart in the source and are kept apart here.

Data set [1] relates to other enzymes involved in purine or pyrimidine metabolism. Particulars: at therapeutic concentrations.
Data set [2] concerns the target xanthine oxidase (XO) (Homo sapiens, UniProt P47989). Particulars: oxidised and reduced forms of XO.

xanthine oxidase (XO), sequence (P47989 whole entry): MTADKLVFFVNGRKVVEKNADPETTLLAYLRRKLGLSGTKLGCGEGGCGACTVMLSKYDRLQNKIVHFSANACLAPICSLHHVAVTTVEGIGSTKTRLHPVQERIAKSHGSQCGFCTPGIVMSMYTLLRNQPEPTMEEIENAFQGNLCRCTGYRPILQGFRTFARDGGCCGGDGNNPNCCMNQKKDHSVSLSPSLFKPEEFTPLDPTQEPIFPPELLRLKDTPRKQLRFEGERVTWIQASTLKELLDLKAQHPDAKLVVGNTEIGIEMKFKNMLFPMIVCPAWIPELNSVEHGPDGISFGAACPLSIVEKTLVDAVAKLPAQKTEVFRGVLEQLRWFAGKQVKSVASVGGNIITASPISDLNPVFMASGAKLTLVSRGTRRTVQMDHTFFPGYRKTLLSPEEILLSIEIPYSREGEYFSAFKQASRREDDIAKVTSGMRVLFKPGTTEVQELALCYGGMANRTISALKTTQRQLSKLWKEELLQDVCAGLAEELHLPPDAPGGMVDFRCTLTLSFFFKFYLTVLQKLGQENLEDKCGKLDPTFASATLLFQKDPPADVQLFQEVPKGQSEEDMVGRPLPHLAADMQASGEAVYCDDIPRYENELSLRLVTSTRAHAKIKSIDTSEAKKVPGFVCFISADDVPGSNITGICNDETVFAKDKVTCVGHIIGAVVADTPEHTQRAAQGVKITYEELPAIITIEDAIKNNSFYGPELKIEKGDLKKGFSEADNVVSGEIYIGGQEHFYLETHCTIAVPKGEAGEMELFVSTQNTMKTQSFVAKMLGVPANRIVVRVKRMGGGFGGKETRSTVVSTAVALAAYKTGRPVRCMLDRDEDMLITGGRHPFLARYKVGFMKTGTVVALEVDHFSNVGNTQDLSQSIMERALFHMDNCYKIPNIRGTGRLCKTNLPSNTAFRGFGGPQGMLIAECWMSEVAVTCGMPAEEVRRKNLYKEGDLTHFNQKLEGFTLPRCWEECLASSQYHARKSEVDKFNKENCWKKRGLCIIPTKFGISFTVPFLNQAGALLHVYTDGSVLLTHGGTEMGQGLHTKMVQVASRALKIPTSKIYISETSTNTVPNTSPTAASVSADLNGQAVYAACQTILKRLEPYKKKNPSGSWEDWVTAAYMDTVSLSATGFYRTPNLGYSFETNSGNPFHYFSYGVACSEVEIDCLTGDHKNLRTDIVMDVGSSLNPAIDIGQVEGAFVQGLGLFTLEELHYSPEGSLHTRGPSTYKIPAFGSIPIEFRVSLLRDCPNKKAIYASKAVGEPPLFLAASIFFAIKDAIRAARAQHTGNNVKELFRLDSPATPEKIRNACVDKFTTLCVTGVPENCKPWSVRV

`Cc1nc(-c2ccc(OCC(C)C)c(C#N)c2)sc1C(=O)O` [Febuxostat, 2-(3-cyano-4-isobutoxyphenyl)-4-methyl-1,3-thiazole-5-carboxylic acid]: for the setting “higher in alkalic media”, the “Solubility, dependence on pH” value was “pH dependent”. Moreover, the Solubility result (in dimethylformamide) is listed as “freely soluble”, the Solubility result (in dimethylsulfoxide) is on record as “soluble”, the Solubility entry (in ethanol) was “sparingly soluble” and the Solubility result (in water) was “practically insoluble”. For the same molecule, the “Inhibition of other enzymes involved in purine or pyrimidine metabolism” value in data set [1] was “does not inhibit”. In addition, the “Inhibition of XO” value in data set [2] is “inhibit both the oxidised and reduced forms of XO”.
In the case of `Cc1nc(-c2ccc(OCC(C)C)c(C#N)c2)sc1C(=O)O` [Form C], the “Solubility of the crystal form, in words” value is “good solubility”.
